This is an account of results in patent US20260062387A1, “SALT-INDUCIBLE KINASE INHIBITOR COMPOUND AND PHARMACEUTICAL COMPOSITION INCLUDING THE SAME” (MITSUBISHI TANABE PHARMA CORPORATION, priority 2023, published 2026).

Each structure is given as a SMILES string. Where only a bound is given, the exact number is not on record here.

As usually defined, the IC50 is the concentration that inhibits the measured activity by half.

Holding throughout (assay type): biochemical
In one experiment the target is GST-tagged SIK3 (Homo sapiens (Human), UniProt Q9Y2K2). The experiment can be described thus: SIK3 inhibition test (ADP-Glo Max Assay). The settings on record: enzyme 100 nM, AMARA Peptide 100 μM, ATP 1 mM, 2 hours room temperature. The essentials: (§1)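 GST-tagged human SIK1, SIK2 and SIK3 at 20 nM, 3 nM and 100 nM final in Tris pH 7.5 buffer, with AMARA peptide (200 μM for SIK1/SIK2, 100 μM for SIK3), 1 mM ATP and 5 mM MgCl2. Reaction ran 2 h at room temperature. ADP read by ADP-Glo Max luminescence, and IC50 fitted from 16 concentrations.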
(In general: ADP-Glo first removes unused ATP, then detects ADP through luciferase.)

The target of another experiment is GST-tagged SIK1 (Homo sapiens (Human), UniProt P57059). The experiment can be described thus: SIK1 inhibition test (ADP-Glo Max Assay). The following applies: enzyme 20 nM, AMARA Peptide 200 μM, ATP 1 mM, 2 hours room temperature. Summed up:
as §1

A further experiment concerns the target GST-tagged SIK2 (Homo sapiens (Human), UniProt Q9H0K1). The experiment can be described thus: SIK2 inhibition test (ADP-Glo Max Assay). The settings on record: enzyme 3 nM, AMARA Peptide 200 μM, ATP 1 mM, 2 hours room temperature. Summed up:
as §1

Sequence of GST-tagged SIK1 (P57059 whole entry): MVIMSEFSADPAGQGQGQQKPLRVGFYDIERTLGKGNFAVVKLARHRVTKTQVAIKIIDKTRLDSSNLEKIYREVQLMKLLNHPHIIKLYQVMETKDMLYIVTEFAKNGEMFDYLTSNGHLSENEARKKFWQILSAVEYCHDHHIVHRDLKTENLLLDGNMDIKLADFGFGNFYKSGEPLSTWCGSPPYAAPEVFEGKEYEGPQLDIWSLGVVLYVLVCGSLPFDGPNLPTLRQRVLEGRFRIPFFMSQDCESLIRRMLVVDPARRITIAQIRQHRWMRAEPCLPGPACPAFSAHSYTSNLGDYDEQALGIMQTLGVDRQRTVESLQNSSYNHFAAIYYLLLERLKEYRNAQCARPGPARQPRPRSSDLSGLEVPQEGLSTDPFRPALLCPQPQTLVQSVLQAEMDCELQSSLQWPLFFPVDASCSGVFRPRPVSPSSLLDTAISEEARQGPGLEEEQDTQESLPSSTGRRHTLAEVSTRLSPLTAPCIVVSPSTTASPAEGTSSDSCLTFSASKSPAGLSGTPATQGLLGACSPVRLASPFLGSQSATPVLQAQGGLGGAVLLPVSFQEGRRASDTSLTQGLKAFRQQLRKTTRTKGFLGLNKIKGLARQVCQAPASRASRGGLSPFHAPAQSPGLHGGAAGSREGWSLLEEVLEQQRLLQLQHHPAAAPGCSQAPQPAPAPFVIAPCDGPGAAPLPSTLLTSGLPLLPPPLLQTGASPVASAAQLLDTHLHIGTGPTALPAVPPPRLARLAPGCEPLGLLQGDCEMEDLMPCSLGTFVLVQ
Sequence of GST-tagged SIK3 (Q9Y2K2 whole entry): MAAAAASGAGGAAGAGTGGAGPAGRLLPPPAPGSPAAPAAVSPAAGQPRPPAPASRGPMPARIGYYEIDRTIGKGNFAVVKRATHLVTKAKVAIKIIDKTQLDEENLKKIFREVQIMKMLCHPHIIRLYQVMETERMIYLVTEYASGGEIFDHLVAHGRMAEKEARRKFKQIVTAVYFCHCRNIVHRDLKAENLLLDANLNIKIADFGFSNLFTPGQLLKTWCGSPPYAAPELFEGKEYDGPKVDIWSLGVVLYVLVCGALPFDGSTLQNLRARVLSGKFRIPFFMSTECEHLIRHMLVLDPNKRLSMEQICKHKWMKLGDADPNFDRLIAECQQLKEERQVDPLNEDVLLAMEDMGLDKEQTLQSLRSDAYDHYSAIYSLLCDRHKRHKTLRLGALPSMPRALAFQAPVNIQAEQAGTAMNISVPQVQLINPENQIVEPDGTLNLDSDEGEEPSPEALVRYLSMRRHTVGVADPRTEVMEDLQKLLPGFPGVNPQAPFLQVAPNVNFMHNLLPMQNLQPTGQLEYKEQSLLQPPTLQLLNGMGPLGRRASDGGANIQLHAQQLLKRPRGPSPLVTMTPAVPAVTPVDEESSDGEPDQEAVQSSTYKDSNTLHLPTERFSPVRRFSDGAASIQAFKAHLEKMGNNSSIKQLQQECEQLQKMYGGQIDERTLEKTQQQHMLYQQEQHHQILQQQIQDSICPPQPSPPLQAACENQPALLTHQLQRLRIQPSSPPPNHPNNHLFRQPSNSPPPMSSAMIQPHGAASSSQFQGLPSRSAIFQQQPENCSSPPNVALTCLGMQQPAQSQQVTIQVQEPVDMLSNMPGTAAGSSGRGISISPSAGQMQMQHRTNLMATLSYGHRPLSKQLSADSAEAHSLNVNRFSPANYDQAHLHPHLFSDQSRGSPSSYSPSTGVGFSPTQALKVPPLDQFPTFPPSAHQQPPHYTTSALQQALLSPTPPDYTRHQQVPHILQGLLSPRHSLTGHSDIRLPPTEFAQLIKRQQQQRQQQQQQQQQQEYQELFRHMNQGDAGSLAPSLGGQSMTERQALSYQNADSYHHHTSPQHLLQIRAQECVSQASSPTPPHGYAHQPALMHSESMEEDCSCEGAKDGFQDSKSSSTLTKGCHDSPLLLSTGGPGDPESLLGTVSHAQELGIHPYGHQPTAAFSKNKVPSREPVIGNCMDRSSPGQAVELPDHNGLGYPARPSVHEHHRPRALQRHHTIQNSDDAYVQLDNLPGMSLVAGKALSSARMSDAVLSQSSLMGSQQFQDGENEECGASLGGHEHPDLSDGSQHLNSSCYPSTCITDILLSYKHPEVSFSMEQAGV
Sequence of GST-tagged SIK2 (Q9H0K1 whole entry): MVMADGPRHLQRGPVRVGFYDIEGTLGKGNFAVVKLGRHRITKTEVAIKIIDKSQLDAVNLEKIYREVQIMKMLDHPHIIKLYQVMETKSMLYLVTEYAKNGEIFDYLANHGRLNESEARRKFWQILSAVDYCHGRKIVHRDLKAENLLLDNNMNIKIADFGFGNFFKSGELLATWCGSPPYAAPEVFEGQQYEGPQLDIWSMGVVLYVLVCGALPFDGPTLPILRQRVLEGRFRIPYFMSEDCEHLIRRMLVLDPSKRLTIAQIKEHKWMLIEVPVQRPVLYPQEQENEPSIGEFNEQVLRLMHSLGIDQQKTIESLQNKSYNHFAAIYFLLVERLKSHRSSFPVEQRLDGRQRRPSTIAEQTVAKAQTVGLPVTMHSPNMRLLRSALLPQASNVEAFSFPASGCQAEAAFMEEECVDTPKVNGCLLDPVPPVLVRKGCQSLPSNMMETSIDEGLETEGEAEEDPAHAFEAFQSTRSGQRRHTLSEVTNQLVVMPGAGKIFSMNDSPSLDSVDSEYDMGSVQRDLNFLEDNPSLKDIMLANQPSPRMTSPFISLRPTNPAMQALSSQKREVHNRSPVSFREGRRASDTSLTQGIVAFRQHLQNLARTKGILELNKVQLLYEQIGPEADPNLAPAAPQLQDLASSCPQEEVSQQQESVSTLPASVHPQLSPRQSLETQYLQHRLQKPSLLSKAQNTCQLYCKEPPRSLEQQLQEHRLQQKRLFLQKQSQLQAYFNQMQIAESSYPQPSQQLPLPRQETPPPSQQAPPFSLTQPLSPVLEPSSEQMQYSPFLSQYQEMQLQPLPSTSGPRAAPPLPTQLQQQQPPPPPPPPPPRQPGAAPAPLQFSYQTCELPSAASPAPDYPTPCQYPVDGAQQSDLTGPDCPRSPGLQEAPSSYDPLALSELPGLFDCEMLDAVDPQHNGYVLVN

`COc1cc(-c2c3c(C#N)cc(-c4cnn(CC5CC5)c4)cc3nn2C)cc(OC(F)F)c1C(=O)N[C@@H]1C[C@@H]1F` [Example 32, 4-[4-cyano-6-[1-(cyclopropylmethyl)pyrazol-4-yl]-2-methylindazol-3-yl]-2-(difluoromethoxy)-N-[(1R, 2S)-2-fluorocyclopropyl]-6-methoxybenzamide]: the values for the IC50 at GST-tagged SIK3, on GST-tagged SIK1 and at GST-tagged SIK2 were 8.9 nM, 5 nM and 4.5 nM, respectively.
With `COc1cc(-c2cnn3cc(OCCN4CCOCC4)ccc23)cc2c1C(=O)N(CC(F)(F)F)CC2` [Comparative Example 6, 8-methoxy-6-[6-(2-morpholinoethoxy)pyrazolo[1,5-a]pyridin-3-yl]-2-(2,2,2-trifluoroethyl)-3,4-dihydroisoquinolin-1-one, reference compound], the values for the half-maximal inhibitory concentration (IC50) against GST-tagged SIK3, against GST-tagged SIK1 and against GST-tagged SIK2 were 42 nM, 5220 nM and 102 nM, respectively.
In the case of `CCCn1cc(-c2cc(C#N)c3c(-c4cc(OC)c(C(N)=O)c(OC(F)F)c4)n(C)nc3c2)cn1` [Example 96, 4-[4-cyano-2-methyl-6-(1-propylpyrazol-4-yl)indazol-3-yl]-2-(difluoromethoxy)-6-methoxybenzamide], the IC50 against GST-tagged SIK3 was 5 nM; against GST-tagged SIK1, 14 nM; at GST-tagged SIK2, 3.9 nM.
Take `COc1cc(-c2c3c(C(F)F)cc(-c4cnn([C@H]5CCOC5)c4)cc3nn2C)cc(OC(F)F)c1C(N)=O` [Example 158, 2-(difluoromethoxy)-4-[4-(difluoromethyl)-2-methyl-6-[1-[(3S)-oxolan-3-yl]pyrazol-4-yl]indazol-3-yl]-6-methoxybenzamide]: the IC50 against GST-tagged SIK3 is 3.6 nM; against GST-tagged SIK1, 11.7 nM; on GST-tagged SIK2 it was 2.2 nM.
Turning to `COc1cc(-c2c3c(C#N)cc(-c4cnn(C[C@H](C)O)c4)cc3nn2C)cc2c1C(=O)NCC2(C)C` [Example 144, 6-[1-[(2S)-2-hydroxypropyl]pyrazol-4-yl]-3-(8-methoxy-4,4-dimethyl-1-oxo-2,3-dihydroisoquinolin-6-yl)-2-methylindazole-4-carbonitrile], the half-inhibitory concentration (IC50) against GST-tagged SIK3 turned out to be 7.8 nM; at GST-tagged SIK1, 10.1 nM; at GST-tagged SIK2, 3.7 nM.
Regarding `COCCn1cc(-c2cc(C(F)F)c3c(-c4cc(OC)c(C(N)=O)c(OC(F)F)c4)n(C)nc3c2)cn1` [Example 134, 2-(difluoromethoxy)-4-[4-(difluoromethyl)-6-[1-(2-methoxyethyl)pyrazol-4-yl]-2-methylindazol-3-yl]-6-methoxybenzamide], the IC50 against GST-tagged SIK3 was found to be 5.7 nM; against GST-tagged SIK1, 13.6 nM; against GST-tagged SIK2 it was 3.3 nM.
With `COc1cc(-c2c3c(C#N)cc(-c4cnn(CC5CCO5)c4)cc3nn2C)cc(OC(F)F)c1C(=O)NCC1(F)CC1` (stereo not drawn) [Example 80, 4-[4-cyano-2-methyl-6-[1-(oxetan-2-ylmethyl)pyrazol-4-yl]indazol-3-yl]-2-(difluoromethoxy)-N-[(1-fluorocyclopropyl)methyl]-6-methoxybenzamide], the IC50 at GST-tagged SIK3 was 10.1 nM; against GST-tagged SIK1, 16.5 nM; against GST-tagged SIK2 it was 8.7 nM.
For `CC[C@H](O)Cn1cc(-c2cc(C#N)c3c(-c4cc(OC)c(C(=O)NCC5(F)CC5)c(OC(F)F)c4)n(C)nc3c2)cn1` [Example 93, 4-[4-cyano-6-[1-[(2S)-2-hydroxybutyl]pyrazol-4-yl]-2-methylindazol-3-yl]-2-(difluoromethoxy)-N-[(1-fluorocyclopropyl)methyl]-6-methoxybenzamide], the IC50 is 5.9 nM against GST-tagged SIK3, 19.8 nM against GST-tagged SIK1 and 13.5 nM at GST-tagged SIK2.
Consider `COc1cc(-c2c3c(OCCCO)cc(-c4cnn(C)c4)cc3nn2C)cc(OC(F)F)c1C(=O)N1CC(O)(C(F)(F)F)C1` [Example 28, [2-(difluoromethoxy)-4-[4-(3-hydroxypropoxy)-2-methyl-6-(1-methylpyrazol-4-yl)indazol-3-yl]-6-methoxyphenyl]-[3-Hydroxy-3-(trifluoromethyl)azetidin-1-yl]methanone], for which the IC50 stood at 13.6 nM on GST-tagged SIK3, 7.3 nM against GST-tagged SIK1 and 4.7 nM against GST-tagged SIK2.
For `C[C@H]1CNC(=O)c2c(OC(F)F)cc(-c3c4c(C#N)cc(-c5cnn(C)c5)cc4nn3C)cc21` (single isomer, unassigned) [Example 181], the IC50 against GST-tagged SIK3 is 3.5 nM; against GST-tagged SIK1 it was 19.4 nM; against GST-tagged SIK2, 6.1 nM.
`COc1cc(-c2c3c(C#N)cc(-c4cc[nH]n4)cc3nn2C)cc(OC(F)F)c1C(=O)N[C@@H]1C[C@@H]1F` [Example 24, 4-[4-cyano-2-methyl-6-(1H-pyrazol-3-yl)indazol-3-yl]-2-(difluoromethoxy)-N-[(1R,2S)-2-fluorocyclopropyl]-6-methoxybenzamide]: the figures for the IC50 against GST-tagged SIK3, at GST-tagged SIK1 and at GST-tagged SIK2 were 11.8 nM, 6.6 nM and 6.5 nM, respectively.
On to `COc1cc(-c2c3c(C#N)cc(-c4cnn(C(F)F)c4)cc3nn2C)cc2c1C(=O)NC[C@@H]2C` (single isomer, unassigned) [Example 128], for which the IC50 against GST-tagged SIK3 amounted to 6.6 nM; against GST-tagged SIK1 it was 8.2 nM; against GST-tagged SIK2 it was 1 nM.
Take `COc1cc(-c2c3c(C#N)cc(-c4cnn(CCC5(O)CCC5)c4)cc3nn2C)cc(OC(F)F)c1C(=O)N[C@@H]1CC1(F)F` [Example 123, 4-[4-cyano-6-[1-[2-(1-hydroxycyclobutyl)ethyl]pyrazol-4-yl]-2-methylindazol-3-yl]-N-[(1R)-2,2-difluorocyclopropyl]-2-(difluoromethoxy)-6-methoxybenzamide]: the IC50 came out at 0.6 nM on GST-tagged SIK3, 4.4 nM against GST-tagged SIK1 and 1.7 nM at GST-tagged SIK2.
In the same order, the values of `COCCn1cc(-c2cc(OC(F)F)c3c(-c4cc(OC)c(C(N)=O)c(OC(F)F)c4)n(C)nc3c2)cn1` [Example 154, 2-(difluoromethoxy)-4-[4-(difluoromethoxy)-6-[1-(2-methoxyethyl)pyrazol-4-yl]-2-methylindazol-3-yl]-6-methoxybenzamide] are 9.5 nM, 7.6 nM and 1.2 nM.
In the same order, the values of `COc1cc(-c2c3c(OCc4cccnc4)cc(-c4cnn(C)c4)cc3nn2C)cc(OC(F)F)c1C(=O)N1CC(O)(C(F)(F)F)C1` [Example 34, [2-(difluoromethoxy)-6-methoxy-4-[2-methyl-6-(1-methylpyrazol-4-yl)-4-(pyridin-3-ylmethoxy)indazol-3-yl]phenyl]-[3-hydroxy-3-(trifluoromethyl)azetidin-1-yl]methanone] are 2.9 nM, 0.4 nM and 1 nM.
In the same order, the values of `CCOc1cc(-c2cnn(C)c2)cc2nn(C)c(-c3cc(OC)c(C(N)=O)c(OC(F)F)c3)c12` [Example 136, 2-(difluoromethoxy)-4-[4-ethoxy-2-methyl-6-(1-methylpyrazol-4-yl)indazol-3-yl]-6-methoxybenzamide] are 13.4 nM, 7.6 nM and 3.4 nM.
As for `COc1cc(-c2c3c(C#N)cc(-c4cnn(CC5CC5)c4)cc3nn2C)cc(OC(F)F)c1C(N)=O` [Example 138, 4-[4-cyano-6-[1-(cyclopropylmethyl)pyrazol-4-yl]-2-methylindazol-3-yl]-2-(difluoromethoxy)-6-methoxybenzamide], the IC50 against GST-tagged SIK3 came to 6.6 nM; on GST-tagged SIK1, 16.9 nM; on GST-tagged SIK2, 7.2 nM.
With `COc1cc(-c2c3c(C#N)cc(-c4cnn(CC(=O)N5CCCC5)c4)cc3nn2C)cc(OC(F)F)c1C(=O)NCC1(F)CC1` [Example 100], the IC50 against GST-tagged SIK3 was 5.7 nM; at GST-tagged SIK1, 15.5 nM; at GST-tagged SIK2, 7.3 nM.
Turning to `COc1cc(-c2c3ccc(N4CCN(C)CC4)cc3nn2C)cc2c1C(=O)N(CC(F)(F)F)CC2` [Comparative Example 8, 8-methoxy-6-(2-methyl-6-(4-methylpiperazin-1-yl)-2H-indazol-3-yl)-2-(2,2,2-trifluoroethyl)-3,4-dihydroisoquinolin-1(2H)-one, reference compound], the figures for the IC50 on GST-tagged SIK3, against GST-tagged SIK1 and on GST-tagged SIK2 were 887 nM, above 10000 nM and 683 nM, respectively.
In the case of `COc1cc(-c2c3c(C#N)cc(-c4cnn(CC5COC5)c4)cc3nn2C)cc(OC(F)F)c1C(=O)NCC1(F)CC1` [Example 59, 4-[4-cyano-2-methyl-6-[1-(oxetan-3-ylmethyl)pyrazol-4-yl]indazol-3-yl]-2-(difluoromethoxy)-N-[(1-fluorocyclopropyl)methyl]-6-methoxybenzamide], the IC50 against GST-tagged SIK3 amounted to 6.6 nM; at GST-tagged SIK1 it was 14.1 nM; against GST-tagged SIK2 it was 3.8 nM.
Taken in the same sequence, the figures for `COc1cc(-c2c3c(C(F)F)cc(-c4cn[nH]c4)cc3nn2C)cc(OC(F)F)c1C(=O)N[C@@H]1CC1(F)F` [Example 150, N-[(1R)-2,2-difluorocyclopropyl]-2-(difluoromethoxy)-4-[4-(difluoromethyl)-2-methyl-6-(1H-pyrazol-4-yl)indazol-3-yl]-6-methoxybenzamide] were 1.3 nM, 10.2 nM and 2.4 nM.
Regarding `COc1cc(-c2c3c(C#N)cc(-c4cnn(CC(=O)N5CCC(F)(F)C5)c4)cc3nn2C)cc(OC(F)F)c1C(=O)NCC1(F)CC1` [Example 101, 4-[4-cyano-6-[1-[2-(3,3-difluoropyrrolidin-1-yl)-2-oxoethyl]pyrazol-4-yl]-2-methylindazol-3-yl]-2-(difluoromethoxy)-N-[(1-fluorocyclopropyl)methyl]-6-methoxybenzamide], the IC50 is 12 nM against GST-tagged SIK3, 15 nM against GST-tagged SIK1 and 5.8 nM on GST-tagged SIK2.
Taken in the same sequence, the figures for `COCCn1cc(-c2cc(OC)c3c(-c4cc(OC(F)F)c5c(c4)[C@@H](C)CNC5=O)n(C)nc3c2)cn1` (single isomer, unassigned) [Example 177] were 10.1 nM, 5.4 nM and 3.1 nM.
